Assay results published in ChEMBL document CHEMBL1201862, “PubChem BioAssay data set” (2004).
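Dose response: 5 concentrations. Exposure: 48 h. Format: 96-well plates. Endpoint: linear interpolation; highest concentration if not reached. GI50 = concentration required for 50% inhibition of growth.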 Activity calls are given as the source filed them. Rule as the data show it: active = GI50 up to about 1.1 µM and inactive = higher.

Columns and labels:
Test in all cases: DTP human tumour cell line panel, 48 h
SNB-78 = test system: SNB-78
M19-MEL = test system: M19-MEL
KM-20L2 = test system: KM-20L2
LXFL 529 = test system: LXFL 529
DLD-1 = test system: DLD-1
XF498 = test system: XF498
BT-549 = test system: BT-549
HOP-18 = test system: HOP-18

Row | SMILES | GI50 (SNB-78) | GI50 (M19-MEL) | GI50 (KM-20L2) | GI50 (DLD-1) | GI50 (BT-549) | also measured
1 | CCCCCN(CCCCC)C(=O)[C@@H](CCC(=O)O)NC(=O)c1cc2ccccc2[nH]1 | 59.6 µM (inactive) | 22.3 µM (inactive) | 40.5 µM (inactive) | 31.5 µM (inactive) |  | GI50 (LXFL 529): 41.7 µM (inactive); GI50 (XF498): 26 µM (inactive)
2 | FC(F)(F)c1cccc(-c2nc3nc(Cl)c(Cl)nc3[nH]2)c1 |  |  |  |  | 3.18 µM (inactive) | 
3 | C(=N/Nc1ccccn1)/c1cccnc1 |  |  |  |  | > 100 µM (inactive) | 
4 | Cn1ncc2c(NCc3ccccc3)ncnc21 |  |  |  |  | > 100 µM (inactive) | 
5 | CCN(CC)c1ccc2cc(-c3nc4ccccc4n3C)c(=O)oc2c1 |  |  |  |  | 0.274 µM (active) | 
6 | O=C1CC(=O)N(CCc2ccccc2)S(=O)(=O)N1CCc1ccccc1 |  | 32.4 µM (inactive) |  | 43.5 µM (inactive) |  | GI50 (HOP-18): 65.2 µM (inactive); GI50 (LXFL 529): 19.8 µM (inactive)
7 | CCCCc1ccc(Nc2nc(Cl)c3c(ncn3COCCOC(C)=O)n2)cc1 |  |  |  |  | 15 µM (inactive) | 
8 | N#C[C@H](C(=O)c1ccccc1F)c1nc2ccccc2[nH]1 |  |  |  |  | > 100 µM (inactive) | 
9 | CCOC(=O)c1nc2ccccc2nc1Nc1ccc(OC)cc1 |  |  |  |  | 24 µM (inactive) | 
10 | Cc1nc(O)nc2nc3cc(Cl)cc(Cl)c3c(NC(C)(CO)CO)c12 |  |  |  |  | 35.6 µM (inactive) | 
11 | COc1cc(CCC(=O)NS(=O)(=O)c2ccccc2)cc(OC)c1OC | > 100 µM (inactive) |  | > 100 µM (inactive) | > 100 µM (inactive) |  | GI50 (HOP-18): 72.6 µM (inactive); GI50 (LXFL 529): > 100 µM (inactive); GI50 (XF498): > 100 µM (inactive)
12 | NNC(=O)/C(=C/c1ccc(Cl)cc1Cl)NC(=O)c1ccccc1 | > 100 µM (inactive) | > 100 µM (inactive) |  | > 100 µM (inactive) |  | GI50 (HOP-18): > 100 µM (inactive); GI50 (LXFL 529): > 100 µM (inactive); GI50 (XF498): > 100 µM (inactive)
13 | CCOC(=O)C(Oc1ccc(OC)c2c1C(=O)CCC2)c1ccccc1 (centres undefined) | 74 µM (inactive) | > 100 µM (inactive) | > 100 µM (inactive) | > 100 µM (inactive) |  | GI50 (LXFL 529): > 100 µM (inactive); GI50 (XF498): > 100 µM (inactive)
14 | c1ccc2c(c1)CCc1c-2n(CCN2CCCCC2)c2ccccc12 |  |  |  |  | 17.9 µM (inactive) | 
15 | COc1cc(C=O)cc(/C=N/N=C/c2ccccc2O)c1O |  |  |  |  | 10.2 µM (inactive) | 
16 | CCN(CC)CCCNc1nccc2c(C)c3c(cc12)c1cnccc1n3C | 0.807 µM (active) | 0.48 µM (active) | 0.0682 µM (active) | 0.0244 µM (active) |  | GI50 (HOP-18): < 0.01 µM (active); GI50 (XF498): 0.16 µM (active)
17 | CC(=O)N1c2ccccc2C23CCN4CC5=CCOC(O)C(C5CC42)C13 (centres undefined) |  |  |  |  | > 100 µM (inactive) | 
18 | O=C(Cn1c(-c2ccccc2)cc2ccccc21)N1CCCC1 |  |  |  |  | > 100 µM (inactive) | 
19 | O=C(NC12CC3CC(CC(C3)C1)C2)C(=O)c1c[nH]c2ccc(Cl)cc12 | 83.2 µM (inactive) | 79.1 µM (inactive) | 5.73 µM (inactive) |  |  | GI50 (LXFL 529): 21.8 µM (inactive); GI50 (XF498): 14.7 µM (inactive)
20 | C/C(CC(=O)Nc1cccc([N+](=O)[O-])c1)=N/NC(N)=S |  | > 100 µM (inactive) | > 100 µM (inactive) | > 100 µM (inactive) |  | GI50 (LXFL 529): > 100 µM (inactive)
21 | CCOC(=O)c1cc2cc(Cc3ccc4[nH]c(C(=O)OCC)cc4c3)ccc2[nH]1 |  |  |  |  | 12.6 µM (inactive) | 
22 | O=c1ncccn1[C@@H]1O[C@H](CO)[C@H](O)C1O (some centres undefined) | > 99.5 µM (inactive) | > 100 µM (inactive) | > 78 µM (inactive) | > 100 µM (inactive) |  | GI50 (HOP-18): > 100 µM (inactive); GI50 (LXFL 529): > 100 µM (inactive); GI50 (XF498): > 100 µM (inactive)
23 | CCOC(=O)C(C(=S)SC)c1nn2c(=O)cc(C)nc2s1 (centres undefined) |  |  |  |  | 16.9 µM (inactive) | 
24 | CCc1ccccc1N1CCN(C(=O)c2cc(OC)c(OC)c(OC)c2)CC1 | 0.262 µM (active) | 0.0647 µM (active) | 0.0813 µM (active) | 0.2 µM (active) | 0.0361 µM (active) | GI50 (XF498): 0.115 µM (active)
25 | C(=N\OCCc1ccccc1)/c1cccnc1 |  |  |  |  | > 100 µM (inactive) | 
26 | COc1ccc(C(OCC2OC3(COC(c4ccccc4)(c4ccc(OC)cc4)c4ccc(OC)cc4)C(Oc4nc(=O)ccn43)C2O)(c2ccccc2)c2ccc(OC)cc2)cc1 (centres undefined) |  |  |  |  | > 100 µM (inactive) | 
27 | COC(=O)c1c(C)cc(OC)c(C/C=C(\C)CCCc2coc(C=C(C)C)c2)c1OC |  |  |  |  | > 100 µM (inactive) | 
28 | N#Cc1c(CC(=O)O)cc(=O)n2c1[nH]c1ccccc12 | > 100 µM (inactive) | > 100 µM (inactive) | > 100 µM (inactive) | > 100 µM (inactive) |  | 
29 | c1ccc(C2CC(NC3CCCCC3)=Nc3ccccc3N2)cc1 (centres undefined) |  |  |  |  | 54.8 µM (inactive) | 
30 | COc1cc2c3cc1Oc1c(OC)c(OC)cc4c1C(Cc1ccc(O)c(c1)Oc1ccc(cc1)CC3N(C)CC2)CN(C)C4 (centres undefined) |  |  |  |  | 14.8 µM (inactive) | 
